Data: the supplement of paper PMC11061612

Key:
Test in all cases: Bliss excess, mean over the matrix (fraction); higher = more synergy
[1] = system: P12-ICHIKAWA (T-Lymphoblastic Leukemia)
Method in brief: (§1)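 Bliss excess equals the observed combination effect minus the expected value EA + EB − EA·EB, where EA and EB are the effects of each agent alone. Combination Emax is the second-highest inhibition within the matrix. Inhibition was scaled from CellTiter-Glo 2.0 luminescence, with 0 set by vehicle wells and 1 by blank wells, after 72 hours of two-drug dosing of cells plated in 1536-well plates.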

[2] = system: GR-ST (B-Lymphoblastic Leukemia)
Method in brief: as §1

[3] = system: SW1417 (Colorectal Carcinoma)
Method in brief: as §1

[4] = system: WIL2-NS (Non-Cancerous)
Method in brief: as §1

[5] = system: NCI-H1792 (Lung Adenocarcinoma)
Method in brief: as §1

[6] = system: BFTC-905 (Bladder Carcinoma)
Method in brief: as §1

[7] = system: KARPAS-45 (T-Lymphoblastic Leukemia)
Method in brief: as §1

[8] = system: EVSA-T (Breast Carcinoma)
Method in brief: as §1

[9] = system: HL-60 (Acute Myeloid Leukemia)
Method in brief: as §1

[10] = system: COLO-678 (Colorectal Carcinoma)
Method in brief: as §1

[11] = system: CHP-212 (Neuroblastoma)
Method in brief: as §1

[12] = system: PANC-08-13 (Pancreatic Carcinoma)
Method in brief: as §1

[13] = system: KYSE-180 (Esophageal Squamous Cell Carcinoma)
Method in brief: as §1

[14] = system: MKN28 (Gastric Carcinoma)
Method in brief: as §1

[15] = system: TOV-112D (Ovarian Carcinoma)
Method in brief: as §1

[16] = system: K-562 (Chronic Myelogenous Leukemia)
Method in brief: as §1

[17] = system: TC-71 (Ewing's Sarcoma)
Method in brief: as §1

[18] = system: MOLT-16 (T-Lymphoblastic Leukemia)
Method in brief: as §1

[19] = system: KM12 (Colorectal Carcinoma)
Method in brief: as §1

[20] = system: DiFi (Colorectal Carcinoma)
Method in brief: as §1

SMILES	Bliss excess [1]	Bliss excess [2]	Bliss excess [3]	Bliss excess [4]	Bliss excess [5]	Bliss excess [6]	Bliss excess [7]	Bliss excess [8]	Bliss excess [9]	Bliss excess [10]	Bliss excess [11]	Bliss excess [12]	Bliss excess [13]	Bliss excess [14]	Bliss excess [15]	Bliss excess [16]	Bliss excess [17]	Bliss excess [18]	Bliss excess [19]	Bliss excess [20]
CN(CCO)CC[C@H](CSc1ccccc1)Nc1ccc(S(=O)(=O)NC(=O)c2ccc(N3CCC([C@@H](O)c4ccccc4-c4ccc(Cl)cc4)CC3)cc2)cc1S(=O)(=O)C(F)(F)F [AZD4320] + Cc1cc2ncnn2cc1Nc1ncc2c(n1)n(C1CCOCC1)c(=O)n2C [AZD7648] (first compound max 1 µM, 7x7, partner max 10 µM)	-0.002	-0.0157	-0.0426	-0.029	-0.024	-0.0375	0.042	-0.0237	0.0074	-0.0684	-0.0441	-0.042	-0.0091	-0.036	-0.019	-0.0332	-0.0201	-0.0059	-0.0234	-0.0203
NC1(C(=O)N[C@@H](CCO)c2ccc(Cl)cc2)CCN(c2ncnc3[nH]ccc23)CC1 [Capivasertib] + CCN(CCO)CCCOc1ccc2c(Nc3cc(CC(=O)Nc4cccc(F)c4)[nH]n3)ncnc2c1 [AZD2811] (first compound max 10 µM, 7x7, partner max 1 µM)	-0.014	0.0222	-0.0478	-0.0431	-0.0079	-0.0462	-0.0426	0.0219	-0.0819	-0.0218	-0.008	-0.0015	-0.0303	0.0119	0.0175	-0.0151	-0.0573	-0.0183	-0.0303	-0.0475
Cc1c2c(nn1C)CSCc1cc(n(C)n1)CSc1cc(c3ccccc3c1)OCCCc1c(C(=O)O)n(C)c3c-2c(Cl)ccc13 [AZD5991] + CCN(CCO)CCCOc1ccc2c(Nc3cc(CC(=O)Nc4cccc(F)c4)[nH]n3)ncnc2c1 [AZD2811] (first compound max 1 µM, 7x7, partner max 1 µM)	-0.0164	-0.0742	-0.0139	0.0821	0.016	0.11	-0.0409	0.0959	-0.0001	-0.0673	-0.0496	0.0135	0.102	0.0839	0.0906	0.086	-0.0244	-0.0114	0.058	-0.0077
Cc1c2c(nn1C)CSCc1cc(n(C)n1)CSc1cc(c3ccccc3c1)OCCCc1c(C(=O)O)n(C)c3c-2c(Cl)ccc13 [AZD5991] + C=CCn1c(=O)c2cnc(Nc3ccc(N4CCN(C)CC4)cc3)nc2n1-c1cccc(C(C)(C)O)n1 [AZD1775] (first compound max 1 µM, partner max 1 µM)	0.0528	-0.0402	-0.0548	0	-0.0453	-0.0212	-0.0189	0.0165	-0.0149	-0.0614	-0.0508	0.0156	0.0464	-0.0227	-0.017	0.0092	0.0478	0.01	0.0031	0.0285
CC1(C)CCC(CN2CCN(c3ccc(C(=O)NS(=O)(=O)c4ccc(NCC5CCOCC5)c([N+](=O)[O-])c4)c(Oc4cnc5[nH]ccc5c4)c3)CC2)=C(c2ccc(Cl)cc2)C1 [Venetoclax] + CCN(CCO)CCCOc1ccc2c(Nc3cc(CC(=O)Nc4cccc(F)c4)[nH]n3)ncnc2c1 [AZD2811] (first compound max 1 µM, 7x7, partner max 1 µM)	-0.0612	-0.0505	-0.0567	0.0275	0.0122	-0.01	-0.0373	0.0485	-0.0385	-0.0312	-0.0499	-0.0269	0.0453	-0.0257	-0.0053	-0.0236	0.0227	0.0239	0.0148	-0.098
CC1(C)CCC(CN2CCN(c3ccc(C(=O)NS(=O)(=O)c4ccc(NCC5CCOCC5)c([N+](=O)[O-])c4)c(Oc4cnc5[nH]ccc5c4)c3)CC2)=C(c2ccc(Cl)cc2)C1 [Venetoclax] + Cc1cc2ncnn2cc1Nc1ncc2c(n1)n(C1CCOCC1)c(=O)n2C [AZD7648] (first compound max 1 µM, 7x7, partner max 10 µM)	0.0424	-0.0513	-0.0705	-0.0684	-0.0591	-0.0081	0.0482	-0.0394	0.0582	-0.0531	-0.0624	-0.0576	0.0053	-0.011	-0.0253	-0.0011	-0.0333	0.0704	-0.0129	-0.0389
